Experimental data from patent publication US20140296147A1, “METHODS OF TREATING OR PREVENTING BLOOD LOSS DURING SURGERY USING THE SERINE PROTEASE INHIBITOR MDCO-2010” (THE MEDICINES COMPANY, priority 2011, published 2014).
Read-outs that look alike come from different tables or passages of the source. Marks after values point to notes of the source that are not given here.

How the values were obtained:
[1] = tested on: intrinsic and extrinsic pathways; test: Anticoagulant effect: ACT, aPTT and ROTEM coagulation times in CABG patients; format: in vivo, human; conditions: five escalating doses, FIG. 3
Experimental: (§1) A Phase IIa, single-center, double-blind, placebo-controlled dose-escalation study was performed to investigate MDCO-2010 in patients undergoing elective, primary CABG (coronary artery bypass graft) surgery.
(§2) Initial heparin dosing (400 units/kg) and heparin maintenance was guided by the Hepcon HMS, with a kaolin ACT target of 480 seconds. Immediately after heparin bolus, study drug administration was initiated with a loading (bolus) dose followed by a continuous infusion of the maintenance dose via a central venous catheter until sternal closure. Patients were randomized in a 3:1 ratio to receive either one of five MDCO-2010 doses (continuous infusion of 12.5, 25, 62.5, 109 or 219 μg/kg/h maintenance dose; 24 patients) or saline as placebo (8 patients).

tPA-induced fibrinolysis = test: Antifibrinolytic effect: D-dimer generation and tPA-induced lysis in CABG patients; format: in vivo, human; conditions: five escalating doses, FIG. 2
Experimental: as §1, §2

coagulation Factor Xa = coagulation Factor Xa (Homo sapiens, UniProt P00742); conditions: cited from earlier work
plasma kallikrein = plasma kallikrein (Homo sapiens, UniProt P03952); conditions: active-site directed, reversible, no cofactor; cited from earlier work
[2] = Plasma pharmacokinetics of MDCO-2010 (LC/MS/MS, non-compartmental analysis) during CABG surgery; format: in vivo, human; conditions: for half-life / clearance / Vd / AUC(0-inf) / AUC(0-t) / Cmax: human, plasma
Experimental: Nominal blood sampling times for PK analysis were pre-dose (T1, pre-heparin) and at 10 min (pre-CBP), 15 min, 30 min, 60 min (or just before cessation of CPB), at the end of infusion (sternal closure), 15 min, 30 min, and at 4 hours post-end of infusion. Actual times were calculated for each patient and used for PK analysis.
MDCO-2010 was measured in plasma by liquid chromatography with tandem mass spectrometry (LC/MS/MS).
Plasma concentrations versus time data were analyzed by non-compartmental analysis using the program WinNonlin Professional Version 5.3 (Pharsight, Mountain View, Calif., USA). Actual sampling times were used for the evaluation.
The following parameters were determined: • AUC0-tlast=area under the MDCO-2010 concentration versus time curve from dosing time to the last time point with a value above the lower limit of quantitation (LLOQ), calculated by linear/log trapezoidal method which uses the linear trapezoidal rule up to Cmax and log trapezoidal rule for the remainder of the curve • AUC0-inf=area under the concentration-time curve from […]; calculated as AUC0-tlast+AUCexpol, where AUCexpol=Clast/λ • Css=steady-state plasma concentration calculated by taking the average of the concentrations in T4 to T7 • Cmax=maximum concentration, directly taken from measured values • t1/2=apparent terminal elimination half-life determined by log-linear regression • CL=total body clearance • Vss=volume of distribution at steady state
Descriptive statistics (number of subjects, arithmetic means, standard deviation (SD), geometric means, medians, minimum and maximum values) were determined for all PK variables, separately for each treatment. Values below the LLOQ of the assay were taken as zero for descriptive statistics of concentrations. For AUC calculations, values below LLOQ were taken as zero if no quantifiable concentrations were found before the value, as missing if quantifiable concentrations were found before and after the value, and also as missing if quantifiable concentrations were found before, but not after the value. Mean (±SD) concentration time plots were provided for each treatment group using linear and semi-logarithmic scale.
Dose proportionality was assessed by the power model using SAS Version 9 (SAS Institute Inc., Cary, N.C.).
The mean values for PK parameters per dose group (mean (±SD) pharmacokinetic variables of MDCO-2010 administered via IV infusion during CABG surgery based on non-compartmental analysis) are summarized in Table 3.

[3] = tested on: patients undergoing elective, primary CABG (coronary artery bypass graft) surgery; test: Safety markers and safety profile in CABG patients; format: in vivo, human
Experimental: as §1, §2

[4] = tested on: patients undergoing elective, primary CABG (coronary artery bypass graft) surgery; test: Phase IIa placebo-controlled dose-escalation study: postoperative blood loss and transfusions; format: in vivo, human
Experimental: as §1
After independent ethics committee approval and written informed consent, thirty two patients underwent CABG surgery (patient characteristics shown in Table 1) through midline sternotomy using minimized extracorporeal circulation (MECC, priming volume of 600 mL).
Initial heparin dosing (400 units/kg) and heparin maintenance was guided by the Hepcon HMS, with a kaolin ACT target of 480 seconds. Immediately after heparin bolus, study drug administration was initiated with a loading (bolus) dose followed by a continuous infusion of the maintenance dose via a central venous catheter until sternal closure. Patients were randomized in a 3:1 ratio to receive either one of five MDCO-2010 doses (continuous infusion of 12.5, 25, 62.5, 109 or 219 μg/kg/h maintenance dose; 24 patients) or saline as placebo (8 patients). […]
loading dose 5 μg/kg, maintenance dose 12.5 μg/kg/h; pump prime 0.02 mg; 3 patients loading dose 11 μg/kg, maintenance dose 25 μg/kg/h; pump prime 0.04 mg; 3 patients loading dose 27 μg/kg, maintenance dose 62.5 μg/kg/h; pump prime 0.09 mg; 6 patients loading dose 47 μg/kg, maintenance dose 109 μg/kg/h; pump prime 0.18 mg; 6 patients loading dose 94 μg/kg, maintenance dose 219 μg/kg/h; pump prime 0.35 mg; 6 patients The loading dose was administered over a five minute period of time in a 10 mL infusion. The maintenance dose was administered as a continuous infusion with a constant flow rate of 23 mL/h for the duration of procedure. MDCO-2010 was also added to the pump prime fluid to the targeted plasma concentration. The pump prime was supplied as a 10 mL load.

coagulation Factor XIa = coagulation Factor XIa (Homo sapiens, UniProt P03951); conditions: cited from earlier work
plasmin = plasmin (Homo sapiens, UniProt P00747); conditions: active-site directed, reversible, no cofactor; cited from earlier work
activated Protein C = activated Protein C (Homo sapiens, UniProt P04070); conditions: cited from earlier work
[5] = Cohort 1, mean dose 1.88 mg, IV infusion during CABG surgery, mean
[6] = Cohort 2, mean dose 4.99 mg, IV infusion during CABG surgery, mean
[7] = Cohort 3, mean dose 12.33 mg, IV infusion during CABG surgery, mean
[8] = Cohort 4, mean dose 19.57 mg, IV infusion during CABG surgery, mean
[9] = Cohort 5, mean dose 38.01 mg, IV infusion during CABG surgery, mean
[10] = Cohort 1 (N = 3): loading dose 5 μg/kg, maintenance dose 12.5 μg/kg/h
[11] = Cohort 2 (N = 3): loading dose 11 μg/kg, maintenance dose 25 μg/kg/h
[12] = Cohort 3 (N = 6): loading dose 27 μg/kg, maintenance dose 62.5 μg/kg/h
[13] = Cohort 4 (N = 6): loading dose 47 μg/kg, maintenance dose 109 μg/kg/h
[14] = Cohort 5 (N = 6): loading dose 94 μg/kg, maintenance dose 219 μg/kg/h, 1 patient received additional heparin without protamine reversal

Sequence of activated Protein C (P04070 212-461 limits assumed): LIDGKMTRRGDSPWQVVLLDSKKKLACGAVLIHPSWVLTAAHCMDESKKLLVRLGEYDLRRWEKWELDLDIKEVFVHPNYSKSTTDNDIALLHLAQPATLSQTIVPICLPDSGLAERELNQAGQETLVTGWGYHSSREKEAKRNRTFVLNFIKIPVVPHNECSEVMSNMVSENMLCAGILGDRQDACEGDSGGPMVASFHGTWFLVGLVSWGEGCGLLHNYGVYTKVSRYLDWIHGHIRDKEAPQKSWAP
Sequence of activated Protein C (P04070 43-197 partner limits assumed): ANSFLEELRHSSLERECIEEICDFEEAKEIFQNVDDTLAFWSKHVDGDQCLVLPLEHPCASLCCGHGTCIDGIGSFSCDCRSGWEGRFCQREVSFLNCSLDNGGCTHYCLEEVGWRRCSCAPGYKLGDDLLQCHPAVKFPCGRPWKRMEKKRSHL
Sequence of plasmin (P00747 581-810 limits assumed): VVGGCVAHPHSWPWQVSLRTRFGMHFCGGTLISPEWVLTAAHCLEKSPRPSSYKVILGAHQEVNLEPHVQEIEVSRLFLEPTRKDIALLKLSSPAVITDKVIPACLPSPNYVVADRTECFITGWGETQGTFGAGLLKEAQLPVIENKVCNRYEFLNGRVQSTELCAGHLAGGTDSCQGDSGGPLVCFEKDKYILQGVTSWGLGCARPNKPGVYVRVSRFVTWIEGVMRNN
Sequence of plasmin (P00747 97-580 partner limits assumed): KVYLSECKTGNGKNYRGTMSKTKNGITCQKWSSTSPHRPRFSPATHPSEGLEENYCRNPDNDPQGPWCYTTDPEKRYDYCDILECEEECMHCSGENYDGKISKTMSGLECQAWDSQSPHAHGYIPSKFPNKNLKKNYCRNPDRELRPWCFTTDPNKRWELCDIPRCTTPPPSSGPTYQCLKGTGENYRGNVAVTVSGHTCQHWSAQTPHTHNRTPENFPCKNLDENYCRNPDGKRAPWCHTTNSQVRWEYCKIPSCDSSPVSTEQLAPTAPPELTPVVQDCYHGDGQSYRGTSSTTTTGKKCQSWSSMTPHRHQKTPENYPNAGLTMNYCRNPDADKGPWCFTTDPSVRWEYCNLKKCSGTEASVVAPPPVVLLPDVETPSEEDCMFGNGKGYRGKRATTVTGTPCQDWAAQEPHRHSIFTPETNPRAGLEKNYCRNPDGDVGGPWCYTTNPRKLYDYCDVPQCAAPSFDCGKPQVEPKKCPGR
Sequence of plasma kallikrein (P03952 391-638 limits assumed): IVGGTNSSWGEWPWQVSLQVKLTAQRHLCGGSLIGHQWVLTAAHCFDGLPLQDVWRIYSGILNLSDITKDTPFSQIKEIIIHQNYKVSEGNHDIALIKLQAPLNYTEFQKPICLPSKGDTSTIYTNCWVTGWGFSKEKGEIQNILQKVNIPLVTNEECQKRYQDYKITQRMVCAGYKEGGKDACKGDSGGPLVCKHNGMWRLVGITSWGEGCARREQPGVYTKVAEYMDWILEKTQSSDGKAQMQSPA
Sequence of plasma kallikrein (P03952 20-390 partner limits assumed): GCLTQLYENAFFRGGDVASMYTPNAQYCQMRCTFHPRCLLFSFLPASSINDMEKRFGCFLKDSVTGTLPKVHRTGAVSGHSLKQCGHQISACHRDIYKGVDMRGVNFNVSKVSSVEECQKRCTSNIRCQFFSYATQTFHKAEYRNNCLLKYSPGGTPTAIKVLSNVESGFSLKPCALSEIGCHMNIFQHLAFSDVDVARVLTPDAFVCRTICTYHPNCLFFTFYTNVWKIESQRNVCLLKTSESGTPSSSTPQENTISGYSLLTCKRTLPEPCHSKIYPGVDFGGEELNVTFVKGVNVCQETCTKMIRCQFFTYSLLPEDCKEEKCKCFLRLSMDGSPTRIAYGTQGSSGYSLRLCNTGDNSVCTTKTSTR
Sequence of coagulation Factor Xa (P00742 235-488 limits assumed): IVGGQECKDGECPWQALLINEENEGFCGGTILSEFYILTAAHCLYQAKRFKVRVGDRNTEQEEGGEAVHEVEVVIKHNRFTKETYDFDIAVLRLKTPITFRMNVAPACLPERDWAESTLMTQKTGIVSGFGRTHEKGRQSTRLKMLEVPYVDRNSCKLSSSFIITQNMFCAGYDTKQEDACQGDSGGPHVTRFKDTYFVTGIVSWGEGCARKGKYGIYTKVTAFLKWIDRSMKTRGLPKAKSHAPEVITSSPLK
Sequence of coagulation Factor Xa (P00742 41-179 partner limits assumed): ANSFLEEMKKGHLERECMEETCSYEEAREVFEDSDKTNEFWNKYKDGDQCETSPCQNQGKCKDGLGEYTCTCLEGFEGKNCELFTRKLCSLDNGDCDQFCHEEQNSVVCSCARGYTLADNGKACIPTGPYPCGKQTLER
Sequence of coagulation Factor XIa (P03951 388-625 limits assumed): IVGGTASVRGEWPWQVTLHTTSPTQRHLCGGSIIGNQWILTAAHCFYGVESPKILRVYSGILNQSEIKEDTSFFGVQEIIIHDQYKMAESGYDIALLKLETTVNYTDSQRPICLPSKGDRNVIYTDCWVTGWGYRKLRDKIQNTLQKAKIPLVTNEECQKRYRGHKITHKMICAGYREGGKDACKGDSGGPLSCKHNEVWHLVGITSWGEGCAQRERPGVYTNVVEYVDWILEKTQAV
Sequence of coagulation Factor XIa (P03951 19-387 partner limits assumed): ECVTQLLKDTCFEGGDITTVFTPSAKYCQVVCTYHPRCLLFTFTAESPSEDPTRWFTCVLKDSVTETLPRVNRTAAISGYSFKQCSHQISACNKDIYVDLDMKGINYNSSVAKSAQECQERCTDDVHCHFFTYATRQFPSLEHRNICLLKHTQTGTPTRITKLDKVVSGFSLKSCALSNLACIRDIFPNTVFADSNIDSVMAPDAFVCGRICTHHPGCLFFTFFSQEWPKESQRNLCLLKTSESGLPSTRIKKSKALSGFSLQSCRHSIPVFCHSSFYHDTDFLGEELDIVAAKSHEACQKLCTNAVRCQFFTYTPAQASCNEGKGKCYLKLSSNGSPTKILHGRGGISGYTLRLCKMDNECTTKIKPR

## N=C(N)c1ccc(CNC(=O)[C@H](Cc2cccc(CN)c2)NC(=O)[C@@H](CCCc2ccccc2)NS(=O)(=O)Cc2cccc(C(=O)O)c2)cc1 [MDCO-2010, 3-({1-[2-(3-Aminomethyl-phenyl)-1-(4-carbamimidoyl-benzylcarbamoyl)-ethylcarbamoyl]-4-phenyl-butylsulfamoyl}-methyl)-benzoic acid]
[1]
  ACT, aPTT and rotation thrombelastometry (ROTEM) coagulation times: dose-related prolongation
tPA-induced fibrinolysis
  antifibrinolytic effect (suppression of D-dimer generation and inhibition of tPA-induced lysis): dose-dependent antifibrinolytic effect
Coagulation Factor Xa
  inhibition of coagulation Factor Xa: inhibits
Plasma kallikrein
  inhibition of plasma kallikrein: potent inhibitor
[2]; [5]
  Css: 50.06 ng/mL
  AUC(0-inf): 152 ng·h/mL
  AUC(0-t): 125 ng·h/mL
  Cmax: 54.8 ng/mL
[2]; [6]
  Css: 96.31 ng/mL
  AUC(0-inf): 334 ng·h/mL
  AUC(0-t): 278 ng·h/mL
  Cmax: 114 ng/mL
[2]; [7]
  Css: 268.21 ng/mL
  AUC(0-inf): 991 ng·h/mL
  AUC(0-t): 905 ng·h/mL
  Cmax: 288 ng/mL
[2]; [8]
  Css: 478.86 ng/mL
  AUC(0-inf): 1880 ng·h/mL
  AUC(0-t): 1640 ng·h/mL
  Cmax: 564 ng/mL
[2]; [9]
  Css: 1009.17 ng/mL
  AUC(0-inf): 4060 ng·h/mL
  AUC(0-t): 3620 ng·h/mL
  Cmax: 1150 ng/mL
[2]; continuous infusion, FIG. 1
  plasma levels during the infusion: stable
[2]; five escalating doses, CABG patients
  mean MDCO-2010 plasma concentrations versus dose: linear dose-proportional increase
[2]; intravenous, following an approximately 100 minute infusion period, all cohorts, read-out: mean value for the elimination half-life
  half-life: ~1.38 h
[2]; intravenous, after end of infusion, CABG patients, read-out: terminal half-life (converted)
  half-life: 1 h
[2]; intravenous, range over cohorts, read-out: elimination half-life, range
  half-life: 1.02 to 1.7 h
[2]; intravenous, 1.88 mg total dose, read-out: Total body clearance
  clearance: 220 ± 78 mL/min
[2]; intravenous, 38.01 mg total dose, read-out: Total body clearance
  clearance: 153 ± 19 mL/min
[2]; intravenous, all dose levels, read-out: Volume of distribution (Vss), range
  Vd: 12 to 17 L
[2]; iv, 1.88 mg, Cohort 1, mean dose 1.88 mg, IV infusion during CABG surgery, mean, read-out: t1/2
  half-life: 1.02 h
[2]; iv, 4.99 mg, Cohort 2, mean dose 4.99 mg, IV infusion during CABG surgery, mean, read-out: t1/2
  half-life: 1.21 h
[2]; iv, 12.33 mg, Cohort 3, mean dose 12.33 mg, IV infusion during CABG surgery, mean, read-out: t1/2
  half-life: 1.26 h
[2]; iv, 19.57 mg, Cohort 4, mean dose 19.57 mg, IV infusion during CABG surgery, mean, read-out: t1/2
  half-life: 1.74 h
[2]; iv, 38.01 mg, Cohort 5, mean dose 38.01 mg, IV infusion during CABG surgery, mean, read-out: t1/2
  half-life: 1.72 h
[2]; Cohort 1, mean dose 1.88 mg, IV infusion during CABG surgery, mean, read-out: Cl
  clearance: 220 mL/min
[2]; Cohort 1, mean dose 1.88 mg, IV infusion during CABG surgery, mean, read-out: Vss
  Vd: 12.7 L
[2]; Cohort 2, mean dose 4.99 mg, IV infusion during CABG surgery, mean, read-out: Cl
  clearance: 263 mL/min
[2]; Cohort 2, mean dose 4.99 mg, IV infusion during CABG surgery, mean, read-out: Vss
  Vd: 16.1 L
[2]; Cohort 3, mean dose 12.33 mg, IV infusion during CABG surgery, mean, read-out: Cl
  clearance: 199 mL/min
[2]; Cohort 3, mean dose 12.33 mg, IV infusion during CABG surgery, mean, read-out: Vss
  Vd: 12.3 L
[2]; Cohort 4, mean dose 19.57 mg, IV infusion during CABG surgery, mean, read-out: Cl
  clearance: 179 mL/min
[2]; Cohort 4, mean dose 19.57 mg, IV infusion during CABG surgery, mean, read-out: Vss
  Vd: 17.4 L
[2]; Cohort 5, mean dose 38.01 mg, IV infusion during CABG surgery, mean, read-out: Cl
  clearance: 153 mL/min
[2]; Cohort 5, mean dose 38.01 mg, IV infusion during CABG surgery, mean, read-out: Vss
  Vd: 15.1 L
[2]; within 4 hours of the end of infusion
  plasma levels abated: 85%
[3]; patients treated with MDCO-2010 vs. placebo, results not shown
  troponin T, CK-MB, prothrombin fragment F1+2, interleukins IL-6 and IL-10, ALAT, ASAT, serum creatinine vs. placebo: No differences
[3]; primary CABG surgery, first-in-patient study
  safety profile of escalating doses: acceptable safety profile
[4]; [10]
  12 hour postoperative chest tube drainage, median ± SD: 450 ± 172 mL
  Average number of transfusions per patient: 0
  Patients receiving transfusions: 0/3
[4]; [11]
  12 hour postoperative chest tube drainage, median ± SD: 595 ± 125 mL
  Average number of transfusions per patient: 0
  Patients receiving transfusions: 0/3
[4]; [12]
  Average number of transfusions per patient: 0.33
  Patients receiving transfusions: 1/6
[4]; [13]
  Average number of transfusions per patient: 0.17
  Patients receiving transfusions: 1/6
[4]; [14]
  Average number of transfusions per patient: 0.67†
  Patients receiving transfusions: 2/6†
[4]; MDCO-2010 vs. placebo
  Chest tube drainage, incidence and volume of RBC transfusions vs. placebo: significantly lower
Coagulation Factor XIa
  inhibition of coagulation Factor XIa: inhibits
plasmin
  inhibition of plasmin: potent inhibitor
Activated Protein C
  inhibition of activated Protein C: inhibits
